For test [1], the target named is T1, Mitogen-activated protein kinase 12 (Homo sapiens) (UniProt P53778).
T1 sequence (whole entry): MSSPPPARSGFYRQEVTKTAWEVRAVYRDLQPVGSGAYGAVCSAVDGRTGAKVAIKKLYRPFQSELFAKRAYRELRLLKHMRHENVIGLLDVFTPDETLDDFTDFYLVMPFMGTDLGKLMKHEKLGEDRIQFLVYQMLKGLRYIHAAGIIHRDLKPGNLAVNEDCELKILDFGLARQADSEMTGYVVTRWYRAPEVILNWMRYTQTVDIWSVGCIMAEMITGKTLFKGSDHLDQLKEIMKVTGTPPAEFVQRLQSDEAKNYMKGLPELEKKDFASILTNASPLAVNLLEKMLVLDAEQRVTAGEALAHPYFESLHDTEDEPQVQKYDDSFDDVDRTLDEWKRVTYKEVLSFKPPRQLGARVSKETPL
The experiment in a line: Inhibition of human recombinant p38gamma at 40 nM in presence of ATP by radiometric assay relative to control.

In test [2] the target is T2, Mitogen-activated protein kinase kinase kinase kinase 2 (Homo sapiens) (UniProt Q12851).
T2 sequence (whole entry): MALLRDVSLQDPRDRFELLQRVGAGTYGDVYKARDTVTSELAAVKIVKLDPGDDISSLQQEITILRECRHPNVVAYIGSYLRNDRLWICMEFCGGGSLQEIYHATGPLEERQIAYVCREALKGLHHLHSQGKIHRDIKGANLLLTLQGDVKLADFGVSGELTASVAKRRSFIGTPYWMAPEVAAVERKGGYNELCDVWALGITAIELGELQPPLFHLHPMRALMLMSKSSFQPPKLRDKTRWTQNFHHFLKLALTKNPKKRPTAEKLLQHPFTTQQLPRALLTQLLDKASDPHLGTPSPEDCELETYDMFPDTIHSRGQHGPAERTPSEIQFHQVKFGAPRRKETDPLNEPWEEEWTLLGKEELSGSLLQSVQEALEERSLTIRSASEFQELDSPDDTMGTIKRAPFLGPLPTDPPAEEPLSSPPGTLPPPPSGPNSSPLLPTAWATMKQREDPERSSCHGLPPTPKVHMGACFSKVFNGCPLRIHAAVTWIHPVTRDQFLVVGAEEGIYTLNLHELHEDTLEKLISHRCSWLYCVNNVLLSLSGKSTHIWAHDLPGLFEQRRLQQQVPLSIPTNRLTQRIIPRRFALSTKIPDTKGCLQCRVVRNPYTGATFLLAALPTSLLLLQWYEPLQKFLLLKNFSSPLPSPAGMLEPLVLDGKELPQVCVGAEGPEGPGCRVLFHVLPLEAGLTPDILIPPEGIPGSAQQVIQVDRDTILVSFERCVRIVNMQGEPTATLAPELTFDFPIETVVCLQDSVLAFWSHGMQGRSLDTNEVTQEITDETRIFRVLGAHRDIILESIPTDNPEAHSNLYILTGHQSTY
Briefly: Inhibition of human recombinant GCK at 40 nM in presence of ATP by radiometric assay relative to control.

Test [3] addresses Fibroblast growth factor receptor 1 (Homo sapiens) (UniProt P11362). The experiment in a line: Inhibition of human recombinant FGFR1 at 40 nM related to control ULK1.
In test [4] the target is Phosphorylase b kinase gamma catalytic chain, skeletal muscle/heart isoform (Homo sapiens) (UniProt Q16816). The experiment in a line: Inhibition of human recombinant PHKg1 at 40 nM in presence of ATP by radiometric assay relative to control.
Test [5] concerns the target Mitogen-activated protein kinase kinase kinase 20 (Homo sapiens) (UniProt Q9NYL2). The experiment in a line: Inhibition of human recombinant ZAK at 500 nM related to control ULK1.
The target of test [6] is Mitogen-activated protein kinase 1 (Homo sapiens) (UniProt P28482). Briefly: Inhibition of human recombinant Erk2 at 15 nM in presence of ATP by radiometric assay relative to control.
For test [7], the target named is T3, Tyrosine-protein kinase ITK/TSK (Homo sapiens) (UniProt Q08881).
T3 sequence (whole entry): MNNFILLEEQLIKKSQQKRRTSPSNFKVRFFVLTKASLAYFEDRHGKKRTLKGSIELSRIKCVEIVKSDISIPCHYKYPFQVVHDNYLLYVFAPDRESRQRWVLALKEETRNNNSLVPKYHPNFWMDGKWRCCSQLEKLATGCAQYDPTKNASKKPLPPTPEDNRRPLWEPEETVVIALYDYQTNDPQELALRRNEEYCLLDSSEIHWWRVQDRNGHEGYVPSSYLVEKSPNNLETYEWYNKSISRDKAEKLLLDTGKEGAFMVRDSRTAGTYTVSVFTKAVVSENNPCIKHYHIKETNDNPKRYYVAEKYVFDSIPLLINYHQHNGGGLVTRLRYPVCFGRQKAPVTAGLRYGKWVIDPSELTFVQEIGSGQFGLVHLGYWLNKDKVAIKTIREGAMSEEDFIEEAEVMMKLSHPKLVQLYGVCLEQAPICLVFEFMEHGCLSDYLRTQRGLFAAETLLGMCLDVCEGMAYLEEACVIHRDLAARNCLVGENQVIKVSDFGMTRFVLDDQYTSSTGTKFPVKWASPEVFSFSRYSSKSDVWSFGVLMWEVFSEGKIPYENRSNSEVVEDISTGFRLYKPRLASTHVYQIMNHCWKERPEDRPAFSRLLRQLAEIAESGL
The experiment in a line: Inhibition of human recombinant ITK at 15 nM in presence of ATP by radiometric assay relative to control.

Test [8] addresses T4, Dual specificity tyrosine-phosphorylation-regulated kinase 3 (Homo sapiens) (UniProt O43781).
T4 sequence (whole entry): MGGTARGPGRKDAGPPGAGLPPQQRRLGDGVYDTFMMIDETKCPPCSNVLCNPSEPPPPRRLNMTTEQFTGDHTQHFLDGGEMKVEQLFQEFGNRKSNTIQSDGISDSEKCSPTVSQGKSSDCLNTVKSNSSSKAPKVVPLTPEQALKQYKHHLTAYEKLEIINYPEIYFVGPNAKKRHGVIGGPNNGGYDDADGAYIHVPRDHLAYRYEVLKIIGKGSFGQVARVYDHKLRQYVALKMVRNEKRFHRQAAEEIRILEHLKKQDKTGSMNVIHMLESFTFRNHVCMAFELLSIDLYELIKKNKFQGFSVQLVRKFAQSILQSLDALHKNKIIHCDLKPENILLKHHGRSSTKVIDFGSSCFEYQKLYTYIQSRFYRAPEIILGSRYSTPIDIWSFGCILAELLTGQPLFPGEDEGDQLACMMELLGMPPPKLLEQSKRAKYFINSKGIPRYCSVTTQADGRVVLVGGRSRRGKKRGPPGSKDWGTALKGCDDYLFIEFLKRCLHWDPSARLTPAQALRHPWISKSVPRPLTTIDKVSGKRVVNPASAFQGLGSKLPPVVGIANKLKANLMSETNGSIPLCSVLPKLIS
Briefly: Inhibition of human recombinant DYRK3 at 15 nM in presence of ATP by radiometric assay relative to control.

For test [9], the target named is Tyrosine-protein kinase Tec (Homo sapiens) (UniProt P42680). Briefly: Inhibition of human recombinant TEC at 15 nM in presence of ATP by radiometric assay relative to control.

For 3 molecules, inhibition and fold change (FC) results are on record in ChEMBL document CHEMBL5653631, “A Potent and Selective ULK1 Inhibitor Suppresses Autophagy and Sensitizes Cancer Cells to Nutrient Stress” (iScience, 2018).

What is called inhibition is the percentage by which the read-out fell short of the control.

Mitogen-activated protein kinase 1 (Homo sapiens), sequence (P28482 whole entry): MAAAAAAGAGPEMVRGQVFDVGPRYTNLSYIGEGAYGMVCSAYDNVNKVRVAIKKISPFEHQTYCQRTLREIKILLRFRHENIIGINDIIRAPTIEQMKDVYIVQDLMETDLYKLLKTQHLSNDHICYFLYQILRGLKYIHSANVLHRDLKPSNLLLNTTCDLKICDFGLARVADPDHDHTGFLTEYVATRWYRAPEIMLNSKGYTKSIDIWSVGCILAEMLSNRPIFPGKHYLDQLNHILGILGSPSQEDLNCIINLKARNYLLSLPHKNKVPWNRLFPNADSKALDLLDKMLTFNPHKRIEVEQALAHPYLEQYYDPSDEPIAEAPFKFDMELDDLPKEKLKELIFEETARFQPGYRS
Mitogen-activated protein kinase kinase kinase 20 (Homo sapiens), sequence (Q9NYL2 2-800 limits assumed): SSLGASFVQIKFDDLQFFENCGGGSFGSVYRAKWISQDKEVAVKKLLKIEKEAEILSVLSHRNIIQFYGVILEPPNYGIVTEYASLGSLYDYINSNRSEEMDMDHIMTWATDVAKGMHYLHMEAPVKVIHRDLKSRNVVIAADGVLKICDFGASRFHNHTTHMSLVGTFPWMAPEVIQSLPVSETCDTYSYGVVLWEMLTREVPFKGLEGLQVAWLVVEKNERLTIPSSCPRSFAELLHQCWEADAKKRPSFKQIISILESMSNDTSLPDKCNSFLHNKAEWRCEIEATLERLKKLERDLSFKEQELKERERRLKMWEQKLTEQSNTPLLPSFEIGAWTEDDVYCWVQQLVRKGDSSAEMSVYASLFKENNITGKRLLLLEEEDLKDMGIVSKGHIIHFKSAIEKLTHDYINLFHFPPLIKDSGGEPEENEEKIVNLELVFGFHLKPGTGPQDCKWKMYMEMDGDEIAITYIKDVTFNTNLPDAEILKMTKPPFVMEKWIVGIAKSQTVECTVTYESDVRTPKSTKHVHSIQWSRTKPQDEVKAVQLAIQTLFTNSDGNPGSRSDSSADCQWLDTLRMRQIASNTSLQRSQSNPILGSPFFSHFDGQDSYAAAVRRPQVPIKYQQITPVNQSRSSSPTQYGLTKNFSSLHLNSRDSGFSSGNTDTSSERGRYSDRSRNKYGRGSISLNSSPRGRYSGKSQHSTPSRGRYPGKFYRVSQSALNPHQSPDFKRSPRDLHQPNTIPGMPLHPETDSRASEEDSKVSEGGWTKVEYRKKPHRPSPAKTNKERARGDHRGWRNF
Tyrosine-protein kinase Tec (Homo sapiens), sequence (P42680 whole entry, looked up): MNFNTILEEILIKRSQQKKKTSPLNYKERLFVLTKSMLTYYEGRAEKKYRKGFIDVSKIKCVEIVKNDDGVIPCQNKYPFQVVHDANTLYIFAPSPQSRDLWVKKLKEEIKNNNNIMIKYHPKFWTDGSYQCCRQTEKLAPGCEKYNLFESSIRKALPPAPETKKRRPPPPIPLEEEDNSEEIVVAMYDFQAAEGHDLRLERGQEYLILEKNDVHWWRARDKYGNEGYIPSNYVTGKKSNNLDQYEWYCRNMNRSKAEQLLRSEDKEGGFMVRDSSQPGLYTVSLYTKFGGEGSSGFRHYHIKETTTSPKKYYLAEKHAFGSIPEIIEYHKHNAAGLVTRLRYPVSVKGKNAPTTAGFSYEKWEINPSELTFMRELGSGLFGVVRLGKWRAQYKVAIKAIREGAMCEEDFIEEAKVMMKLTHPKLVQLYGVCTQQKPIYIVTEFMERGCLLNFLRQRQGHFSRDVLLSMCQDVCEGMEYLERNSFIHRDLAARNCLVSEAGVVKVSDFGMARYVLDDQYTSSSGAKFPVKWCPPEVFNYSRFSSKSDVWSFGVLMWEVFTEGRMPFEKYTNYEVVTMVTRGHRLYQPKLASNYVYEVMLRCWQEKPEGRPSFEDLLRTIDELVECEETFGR
Fibroblast growth factor receptor 1 (Homo sapiens), sequence (P11362 22-822 limits assumed): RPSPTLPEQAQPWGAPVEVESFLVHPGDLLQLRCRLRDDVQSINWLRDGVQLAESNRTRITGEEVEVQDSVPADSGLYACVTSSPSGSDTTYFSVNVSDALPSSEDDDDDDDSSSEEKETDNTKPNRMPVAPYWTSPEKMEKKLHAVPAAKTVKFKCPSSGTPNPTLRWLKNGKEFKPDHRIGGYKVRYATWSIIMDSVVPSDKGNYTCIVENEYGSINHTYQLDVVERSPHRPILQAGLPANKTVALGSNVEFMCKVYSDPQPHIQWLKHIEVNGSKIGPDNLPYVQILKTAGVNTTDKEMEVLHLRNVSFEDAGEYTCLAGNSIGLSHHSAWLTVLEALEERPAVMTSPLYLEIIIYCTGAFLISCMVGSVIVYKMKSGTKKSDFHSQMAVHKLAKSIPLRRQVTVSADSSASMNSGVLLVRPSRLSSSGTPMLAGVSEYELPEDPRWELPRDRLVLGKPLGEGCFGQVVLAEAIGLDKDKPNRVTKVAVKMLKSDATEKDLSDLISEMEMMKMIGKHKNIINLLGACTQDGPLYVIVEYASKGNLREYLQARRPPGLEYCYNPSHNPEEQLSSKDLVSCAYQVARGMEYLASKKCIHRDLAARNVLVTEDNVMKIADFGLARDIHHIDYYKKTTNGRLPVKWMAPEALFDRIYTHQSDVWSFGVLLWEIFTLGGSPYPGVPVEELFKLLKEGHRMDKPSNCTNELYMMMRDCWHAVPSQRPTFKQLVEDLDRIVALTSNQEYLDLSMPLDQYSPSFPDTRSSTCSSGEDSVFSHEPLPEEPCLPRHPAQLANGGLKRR
Phosphorylase b kinase gamma catalytic chain, skeletal muscle/heart isoform (Homo sapiens), sequence (Q16816 whole entry, looked up, canonical isoform): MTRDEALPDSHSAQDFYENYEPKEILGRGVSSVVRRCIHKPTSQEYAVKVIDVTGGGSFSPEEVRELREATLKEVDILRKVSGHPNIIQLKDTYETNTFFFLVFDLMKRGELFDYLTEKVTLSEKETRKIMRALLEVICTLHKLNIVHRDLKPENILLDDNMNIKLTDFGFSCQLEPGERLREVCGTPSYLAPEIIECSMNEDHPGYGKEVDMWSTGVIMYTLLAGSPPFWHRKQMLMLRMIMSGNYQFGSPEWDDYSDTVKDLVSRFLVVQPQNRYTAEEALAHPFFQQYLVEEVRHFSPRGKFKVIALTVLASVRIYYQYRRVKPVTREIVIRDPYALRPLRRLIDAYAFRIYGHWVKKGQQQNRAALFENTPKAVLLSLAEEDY

Turning to `O=C(N[C@@H](C1CC1)C(F)(F)F)c1cc(-c2cnn3cc(-c4ccc(F)cc4)cnc23)cs1`, the inhibition came out at 0% in test [1], 0% in [2] and 12% in [4]. Also, the fold change (FC) in [3] was 0.

On to `CNC(=O)c1ccccc1Oc1nc(Nc2cc(OC)c(OC)c(OC)c2)ncc1Br`, for which, in test [5], the fold change (FC) was found to be 0.01.

Consider `CC(C)[C@H](NC(=O)c1cc(-c2cnn3cc(-c4ccc(OCCN5CCCCC5)cc4)cnc23)cs1)C(F)(F)F`, for which the inhibition is 0% in [6], 4% in test [7], 23% in test [8] and 0% in [9].
